From US6972296B2, “Carboxylic acid derivatives that inhibit the binding of integrins to their receptors” (Encysive Pharmaceuticals Inc., priority 1999, dated 2005)

Each compound was assayed against T1, α4β1 integrin (Homo sapiens, UniProt P05556+P13612) (assay: Adhesion of calcein-labeled Ramos cells to CS1 (fibronectin) peptide conjugated ovalbumin). Conditions: Table 3; Ramos cell adhesion to CS1 conjugated ovalbumin, 30 minutes at 37° C.
T1 construct: endogenous in cells; host or cells: Ramos cells
T1 sequence (P13612 34-1032): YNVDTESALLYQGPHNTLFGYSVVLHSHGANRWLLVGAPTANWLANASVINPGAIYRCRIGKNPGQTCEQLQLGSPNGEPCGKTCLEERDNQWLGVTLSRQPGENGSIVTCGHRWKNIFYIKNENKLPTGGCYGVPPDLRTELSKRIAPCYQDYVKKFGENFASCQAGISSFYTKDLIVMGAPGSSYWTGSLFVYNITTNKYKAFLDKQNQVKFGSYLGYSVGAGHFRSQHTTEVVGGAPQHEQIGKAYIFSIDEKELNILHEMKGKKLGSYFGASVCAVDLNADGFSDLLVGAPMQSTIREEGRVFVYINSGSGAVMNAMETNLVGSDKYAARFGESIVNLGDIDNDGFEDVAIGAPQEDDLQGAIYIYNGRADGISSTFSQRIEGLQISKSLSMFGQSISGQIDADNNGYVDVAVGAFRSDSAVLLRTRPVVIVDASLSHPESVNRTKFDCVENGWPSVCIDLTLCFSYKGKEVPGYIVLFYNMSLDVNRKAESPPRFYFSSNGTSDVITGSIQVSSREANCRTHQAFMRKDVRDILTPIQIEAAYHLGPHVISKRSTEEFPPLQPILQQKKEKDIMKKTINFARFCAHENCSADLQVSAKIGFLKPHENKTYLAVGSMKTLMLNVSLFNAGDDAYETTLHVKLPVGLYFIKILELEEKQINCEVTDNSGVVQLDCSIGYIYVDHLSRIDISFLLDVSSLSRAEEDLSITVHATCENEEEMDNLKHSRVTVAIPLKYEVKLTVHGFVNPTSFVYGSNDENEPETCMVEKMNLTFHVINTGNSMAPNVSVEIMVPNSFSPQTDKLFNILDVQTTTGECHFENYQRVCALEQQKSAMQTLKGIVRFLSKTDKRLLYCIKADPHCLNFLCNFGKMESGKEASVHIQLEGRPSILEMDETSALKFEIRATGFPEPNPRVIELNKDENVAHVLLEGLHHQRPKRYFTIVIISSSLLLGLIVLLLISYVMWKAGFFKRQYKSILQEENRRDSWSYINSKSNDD
T1 sequence (P05556 21-798): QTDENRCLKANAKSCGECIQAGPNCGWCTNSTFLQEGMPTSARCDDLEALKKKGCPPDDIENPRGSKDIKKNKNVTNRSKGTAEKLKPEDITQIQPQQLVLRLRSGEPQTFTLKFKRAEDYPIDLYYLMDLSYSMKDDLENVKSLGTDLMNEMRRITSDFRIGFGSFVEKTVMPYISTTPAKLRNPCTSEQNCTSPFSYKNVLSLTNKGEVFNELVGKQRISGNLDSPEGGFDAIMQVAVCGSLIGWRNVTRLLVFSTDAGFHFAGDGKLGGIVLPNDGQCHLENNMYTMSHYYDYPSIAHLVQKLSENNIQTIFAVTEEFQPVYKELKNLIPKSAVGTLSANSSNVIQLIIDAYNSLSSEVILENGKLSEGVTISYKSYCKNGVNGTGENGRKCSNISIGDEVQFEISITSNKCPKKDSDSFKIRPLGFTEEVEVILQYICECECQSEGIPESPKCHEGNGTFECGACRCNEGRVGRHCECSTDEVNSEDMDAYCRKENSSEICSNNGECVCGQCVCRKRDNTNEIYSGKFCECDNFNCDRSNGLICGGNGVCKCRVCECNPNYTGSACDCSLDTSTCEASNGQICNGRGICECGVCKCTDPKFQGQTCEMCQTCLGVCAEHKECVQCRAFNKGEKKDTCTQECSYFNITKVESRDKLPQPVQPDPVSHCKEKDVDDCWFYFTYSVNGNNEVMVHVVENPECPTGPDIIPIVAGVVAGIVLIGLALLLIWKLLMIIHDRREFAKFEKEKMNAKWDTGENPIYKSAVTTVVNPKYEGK
Type: cell-based
Method in brief: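 Plates bearing CS1 fibronectin peptide coupled to ovalbumin (0.5 μg/ml coat, 3% BSA block) received calcein-labelled Ramos cells plus compound (100 μM stated) for 30 min at 37 °C. Buffer was TBS pH 7.5 with 1 mM Mg2+, Ca2+, Mn2+; bound cells quantified by fluorescence after lysis; […].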
`Cc1ccc([C@H](CC(=O)O)NC(=O)Nc2c(N)ccn(Cc3ccccc3Cl)c2=O)cc1` [(3S)-3-{[({4-amino-1-[(2-chlorophenyl)methyl]-2-oxo-1,2-dihydro-3-pyridinyl}amino)carbonyl]amino}-3-(4-methylphenyl)propanoic acid] showed an IC50 of 10 nM. `O=C(O)C[C@H](NC(=O)Nc1c(O)ccn(Cc2ccccc2Cl)c1=O)c1cccc(C(F)(F)F)c1` [(3S)-3-{[({1-[(2-chlorophenyl)methyl]-4-hydroxy-2-oxo-1,2-dihydro-3-pyridinyl}amino)carbonyl]amino}-3-[3-(trifluoromethyl)phenyl]propanoic acid] gave an IC50 of 20 nM. `Cc1ccc([C@H](CC(=O)O)NC(=O)Nc2c(Br)ccn(Cc3ccccc3Cl)c2=O)cc1` showed an IC50 of 20 nM. `CCCc1ccn(Cc2ccccc2)c(=O)c1NC(=O)N[C@@H](CC(=O)O)c1ccc2c(c1)OCO2` [(3S)-3-(1,3-benzodioxol-5-yl)-3-[({[2-oxo-1-(phenylmethyl)-4-propyl-1,2-dihydro-3-pyridinyl]amino}carbonyl)amino]propanoic acid] showed an IC50 of 10 nM.

Same assay, conditions: Table 4; Ramos cell adhesion to CS1 conjugated ovalbumin, 30 minutes at 37° C.
For `Cc1cccc([C@H](CC(=O)O)NC(=O)Nc2cccn(Cc3ccccc3Cl)c2=O)c1`, the IC50 was 200 nM. In the case of `Cc1ccc([C@H](CC(=O)O)NC(=O)Nc2cccn(Cc3c(F)cccc3Cl)c2=O)cc1`, the IC50 is reported as 100 nM. `Cc1ccc([C@H](CC(=O)O)NC(=O)Nc2cnc(C)n(Cc3ccccc3Cl)c2=O)cc1` was tested, and the IC50 was 90 nM. `O=C(O)C[C@H](NC(=O)Nc1cccn(Cc2ccccc2Cl)c1=O)c1ccc2c(c1)OCO2` gave an IC50 of 300 nM. With `Cc1ccc([C@H](CC(=O)O)NC(=O)Nc2cccn(Cc3ccccc3Cl)c2=O)cc1C` the IC50 was 90 nM. For `Cc1cccc(Cn2cccc(NC(=O)N[C@@H](CC(=O)O)c3ccc4c(c3)OCO4)c2=O)c1`, the IC50 was 1500 nM. Compound `CC(C)(C)c1ccc([C@H](CC(=O)O)NC(=O)Nc2cccn(Cc3cccs3)c2=O)cc1` has an IC50 of 2000 nM. `Cc1ccc([C@H](CC(=O)O)NC(=O)Nc2cccn(Cc3ccccc3F)c2=O)cc1` gave an IC50 of 100 nM. With `Cc1ccc([C@H](CC(=O)O)NC(=O)Nc2cccn(Cc3ccc(Cl)s3)c2=O)cc1` the IC50 was 1300 nM. Compound `O=C(O)C[C@H](NC(=O)Nc1cccn(Cc2cccs2)c1=O)c1ccc(F)c(C(F)(F)F)c1` has an IC50 of 350 nM. Work on `Cc1ccc([C@H](CC(=O)O)NC(=O)Nc2cccn(Cc3ccc(F)cc3Cl)c2=O)cc1` yielded an IC50 of 350 nM.

Same assay, conditions: Table 5; Ramos cell adhesion to CS1 conjugated ovalbumin; dose required to give 50% inhibition
`Cc1ccc([C@H](CC(=O)O)NC(=O)Nc2c(NC(=O)C(C)(C)C)ccn(Cc3ccccc3Cl)c2=O)cc1` [(3S)-3-{[({1-(2-chlorobenzyl)-4-[(2,2-dimethylpropanoyl)amino]-2-oxo-1,2-dihydropyridin-3-yl}amino)carbonyl]amino}-3-(4-methylphenyl)propanoic acid] gave an IC50 of 10 nM. `Cc1ccc([C@H](CC(=O)O)NC(=O)Nc2c(O)ccn(Cc3cccc(C)c3)c2=O)cc1` was tested, and the IC50 was 55 nM. Compound `Cc1ccc([C@H](CC(=O)O)NC(=O)Nc2c(O)ccn(Cc3cccc(C(F)(F)F)c3)c2=O)cc1` has an IC50 of 17 nM. Compound `Cc1ccc([C@@H](CC(=O)O)NC(=O)Nc2c(O)ccn(Cc3ccccc3Cl)c2=O)cc1` has an IC50 of 300 nM. `COc1cccc(Cl)c1Cn1ccc(O)c(NC(=O)N[C@@H](CC(=O)O)c2ccc(OC(F)(F)F)cc2)c1=O` gave an IC50 of 40 nM. For `Cc1ccc([C@H](CC(=O)O)NC(=O)Nc2cccn(Cc3cc(O)ccc3Cl)c2=O)cc1`, the IC50 was 250 nM. Work on `Cc1ccc([C@H](CC(=O)O)NC(=O)Nc2c(O)ccn(Cc3ccc(F)cc3)c2=O)cc1` yielded an IC50 of 22 nM. `COc1cc([C@H](CC(=O)O)NC(=O)Nc2c(O)c(C)c(C)n(Cc3c(C)cccc3Cl)c2=O)ccc1C` gave an IC50 of 25 nM. `COc1ccc([C@H](CC(=O)O)NC(=O)Nc2c(O)ccn(Cc3ccccc3Cl)c2=O)cc1F` gave an IC50 of 15 nM.

Same assay, conditions: Table 6; Ramos cell adhesion to CS1 conjugated ovalbumin, 30 minutes at 37° C.
In the case of `COc1ccc(C(C)=O)cc1Cn1ccc(O)c(NC(=O)N[C@@H](CC(=O)O)c2ccc(C)cc2)c1=O`, the IC50 is reported as 33 nM. For `CCCc1cn(Cc2c(Cl)cccc2OC)c(=O)c(NC(=O)N[C@@H](CC(=O)O)c2cccc(OCC)c2)c1O`, the IC50 was 7 nM. `O=C(O)C[C@H](NC(=O)Nc1c(O)ccn(Cc2ccccc2Cl)c1=O)c1cccc(OC2CCCC2)c1` gave an IC50 of 5 nM. `CCOc1ccc([C@H](CC(=O)O)NC(=O)Nc2c(O)c(C)nn(Cc3ccccc3Cl)c2=O)cc1OCC` gave an IC50 of 3 nM. Work on `CCOc1cc(OCC)cc([C@H](CC(=O)O)NC(=O)Nc2c(O)c(C)nn(Cc3ccccc3Cl)c2=O)c1` yielded an IC50 of 10 nM. With `COc1ccc([C@H](CC(=O)O)NC(=O)Nc2c(O)c(C)cn(Cc3ccccc3Cl)c2=O)cc1` [(3S)-3-[({[1-(2-chlorobenzyl)-4-hydroxy-5-methyl-2-oxo-1,2-dihydropyridin-3-yl]amino}carbonyl)amino]-3-(4-methoxyphenyl)propanoic acid] the IC50 was 4 nM. For `COc1cc([C@H](CC(=O)O)NC(=O)Nc2c(O)c(C)cn(Cc3c(Cl)cccc3OC)c2=O)ccc1C`, the IC50 was 6 nM. `Cc1ccc([C@H](CC(=O)O)NC(=O)Nc2c(O)c(C)cn(Cc3c(C)cccc3Cl)c2=O)cc1C` showed an IC50 of 45 nM.

Same assay, conditions: Table 7; Ramos cell adhesion to CS1 conjugated ovalbumin; dose required to give 50% inhibition
`CCCOc1cccc(Cl)c1Cn1cc(C)c(O)c(NC(=O)N[C@@H](CC(=O)O)c2cccc(OCC)c2)c1=O` gave an IC50 of 5 nM. `CCOc1cc([C@H](CC(=O)O)NC(=O)Nc2c(O)c3c(n(Cc4c(C)cccc4Cl)c2=O)CCC3)ccc1Cl` gave an IC50 of 25 nM. For `Cc1cn(Cc2c(C)cccc2Cl)c(=O)c(NC(=O)N[C@@H](CC(=O)O)c2ccc3c(c2)CCO3)c1O`, the IC50 was 5 nM. `COc1ccccc1-c1ccc([C@H](CC(=O)O)NC(=O)Nc2c(O)c(C)cn(Cc3ccccc3Cl)c2=O)cc1` gave an IC50 of 25 nM. `CCN(c1cccc([C@H](CC(=O)O)NC(=O)Nc2c(O)c3c(n(Cc4ccccc4Cl)c2=O)CCC3)c1)S(C)(=O)=O` [(3S)-3-{[({1-[(2-chlorophenyl)methyl]-4-hydroxy-2-oxo-2,5,6,7-tetrahydro-1H-cyclopenta[b]pyridin-3-yl}amino)carbonyl]amino}-3-{3-[ethyl(methylsulfonyl)amino]phenyl}propanoic acid] showed an IC50 of 1 nM. `CCOc1cccc([C@H](CC(=O)O)NC(=O)Nc2c(O)c(CC)c(C)n(Cc3c(Cl)cccc3OCC)c2=O)c1` was tested, and the IC50 was 4 nM. `CCOc1ncc([C@H](CC(=O)O)NC(=O)Nc2c(O)c(C)cn(Cc3ccccc3Cl)c2=O)c(OCC)n1` was tested, and the IC50 was 13 nM. `CCCc1cn(Cc2c(Cl)cccc2OCC)c(=O)c(NC(=O)N[C@@H](CC(=O)O)c2cccc(OC(C)C)c2)c1O` gave an IC50 of 22 nM. `O=C(O)C[C@H](NC(=O)Nc1c(O)c2c(n(Cc3ccccc3Cl)c1=O)CCC2)c1cc(F)cc(F)c1` was tested, and the IC50 was 7 nM. Compound `CCOc1ncc([C@H](CC(=O)O)NC(=O)Nc2c(O)c3c(n(Cc4ccccc4Cl)c2=O)CCC3)c(OCC)n1` has an IC50 of 15 nM. For `CCCOc1cccc(Cl)c1Cn1cc(C)c(O)c(NC(=O)N[C@@H](CC(=O)O)c2ccc(C)cc2)c1=O`, the IC50 was 10 nM. `Cc1ccc([C@H](CC(=O)O)NC(=O)Nc2c(O)c(C)cn(Cc3c(Cl)cccc3OCC(C)C)c2=O)cc1` showed an IC50 of 22 nM. With `CCCc1cn(Cc2c(Cl)cccc2OCC)c(=O)c(NC(=O)N[C@@H](CC(=O)O)c2ccc(C)cc2)c1O` the IC50 was 20 nM. With `CSc1ccc(C(CC(=O)O)NC(=O)Nc2c(O)c(C)cn(Cc3ccccc3Cl)c2=O)cc1` (stereo not shown) the IC50 was 15 nM. With `O=C(O)C[C@H](NC(=O)Nc1c(O)c2c(n(Cc3ccccc3Cl)c1=O)CCC2)c1cnc2ccccc2c1` the IC50 was 22 nM. `CCOc1cc([C@H](CC(=O)O)NC(=O)Nc2c(O)c3c(n(Cc4c(C)cccc4Cl)c2=O)CCC3)c(Cl)c(OCC)c1Cl` gave an IC50 of 500 nM. `CCOc1cccc(Cl)c1Cn1cc(C)c(O)c(NC(=O)NC(CC(=O)O)c2ccc(S(C)(=O)=O)cc2)c1=O` (stereo not shown) showed an IC50 of 8 nM.
